Laboratory results: PubChem BioAssay (NCI)
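Each compound was tested at five concentrations against cells in 96-well plates for 48 hours. GI50: concentration for 50% inhibition of growth. The concentration for full growth arrest is given as TGI.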

Legend:
Assay in all cases: inhibition of tumour cell growth, NCI panel, 48 h
[1] = system: SNB-78 CNS
[2] = system: SK-OV-3 ovarian
[3] = system: DLD-1 colon
[4] = system: M19-MEL melanoma
[5] = system: DMS 273 small cell lung
[6] = system: LXFL 529 NSCLC
[7] = system: MDA-MB-435
[8] = system: HS 578T breast
[9] = system: MCF7 breast

| Compound | TGI [1] [µM] | TGI [2] [µM] | TGI [3] [µM] | TGI [4] [µM] | TGI [5] [µM] | TGI [6] [µM] | TGI [7] [µM] | TGI [8] [µM] | TGI [9] [µM] | GI50 [2] [µM] | GI50 [7] [µM] | GI50 [8] [µM] | GI50 [9] [µM] |
| --- | --- | --- | --- | --- | --- | --- | --- | --- | --- | --- | --- | --- | --- |
| COc1cc(Nc2nc3ccccc3nc2-c2cccs2)cc(OC)c1OC | > 100 | > 100 | > 100 | > 100 | > 100 | > 100 | – | – | – | – | – | – | – |
| CCOC(=O)/C(C#N)=C/c1[nH]c(C(=O)OCc2ccccc2)c(C)c1C | – | > 100 | > 100 | > 100 | > 100 | > 100 | – | – | – | – | – | – | – |
| CC1CN1C(=O)NCCCCCCNC(=O)N1CC1C (centres undefined) | – | > 100 | > 100 | > 100 | > 100 | > 100 | > 100 | > 100 | > 100 | – | – | – | – |
| O=C(CC1(O)C(=O)Nc2ccccc21)c1ccncc1 (centres undefined) | > 100 | > 100 | > 100 | > 100 | > 100 | > 100 | – | – | – | – | – | – | – |
| Cc1c(C(=O)C/C(=N/NC(=O)C[N+](C)(C)C)C(=O)Nc2ccc(Cl)cc2)[n+](=O)c2ccccc2n1O | > 100 | – | > 100 | > 100 | > 100 | > 100 | – | – | – | – | – | – | – |
| C/C(CC(=O)Nc1cc(C)ccc1C)=N\NC(=O)c1ccncc1 | > 100 | > 100 | > 100 | > 100 | – | > 100 | – | – | – | – | – | – | – |
| CCCC1N2CCCCC2[C@@H]2c3[nH]c4ccccc4c3CCN12 (some centres undefined) | > 100 | > 100 | > 100 | > 100 | > 100 | > 100 | – | – | – | – | – | – | – |
| O=C(CCc1cc(-c2ccccc2)nc(=S)[nH]1)N(Cc1ccccc1)Cc1ccccc1 | > 100 | > 100 | > 100 | > 100 | > 100 | > 100 | – | – | – | – | – | – | – |
| CC(=O)OCC1OC(NC(=S)N/N=C2\CC(c3ccccc3)Oc3ccccc32)C(OC(C)=O)C(OC(C)=O)C1OC(C)=O (centres undefined) | > 100 | > 100 | > 100 | > 100 | > 100 | > 100 | – | – | – | – | – | – | – |
| COCCCNC(=O)C1C(=O)C(=O)N(CCCOC)C1=O (centres undefined) | > 100 | > 100 | > 100 | > 100 | > 100 | > 100 | – | – | – | – | – | – | – |
| Cc1ccc(NC(=O)CC(=O)n2nc(C)c(N=Nc3ccccc3C(=O)O)c2C)cc1 | > 100 | > 100 | > 100 | > 100 | > 100 | > 100 | – | – | – | – | – | – | – |
| C#CCNC(=O)c1cccc2c1cc(C)n2-c1nc2c(c(NCc3ccccc3)n1)CCCC2 | – | 0.232 | – | – | – | – | 0.0656 | 0.954 | 0.142 | 0.056 | 0.0235 | 0.0321 | 0.0151 |
| COc1ccc2c(c1)[n+](=O)c(C(=O)C/C(=N/OCCCc1ccccc1)C(=O)NC13CC4CC(CC(C4)C1)C3)c(C)n2[O-] | > 100 | > 100 | > 100 | > 100 | > 100 | > 100 | – | – | – | – | – | – | – |
| COC(=O)Nc1nc2ccc(Oc3ccc(NC(=O)Nc4cc(C(F)(F)F)ccc4F)cc3)cc2s1 | – | > 25 | – | – | – | – | > 25 | > 25 | > 25 | > 25 | 7.37 | 6.21 | > 19.6 |
| CC1(C)OC2=C(CC1Br)C(=O)C(=O)c1ccccc12 (centres undefined) | – | 3.47 | – | – | – | – | 3.35 | 7.69 | 3.74 | 1.96 | 1.69 | 2.65 | 1.68 |
| O=C(O)/C=C(\c1nc2ccc([N+](=O)[O-])cc2[nH]1)c1cc(Cl)ccc1O | – | 11.8 | – | – | – | – | 34.5 | > 100 | 16.6 | 2.44 | 2.84 | 4.97 | 2.36 |
| CC(C)(CO)N1CCN(C(=S)Nc2ccccc2)CC1 | – | > 100 | – | – | – | – | > 100 | > 100 | > 100 | – | – | – | – |
| C[C@@H]1OC(=O)N2CCCC(=C3SCCCS3)C12 (some centres undefined) | > 100 | > 100 | – | > 100 | > 100 | > 100 | – | – | – | – | – | – | – |
| O=C1c2cccc([N+](=O)[O-])c2C(=O)N1c1ncn[nH]1 | – | > 100 | – | – | – | – | > 100 | > 100 | > 100 | – | – | – | – |
| O=[N+]([O-])c1ccc(C=NC2CCCCC2)cc1 | > 100 | > 100 | > 100 | > 100 | > 100 | – | – | – | – | – | – | – | – |
| CN(C)CCNC(=O)c1cccc2ccc(-c3ccncc3)nc12 | > 100 | 6.95 | 31 | 4.86 | 7.76 | – | – | – | – | – | – | – | – |
| Cc1cc2c(cc1Cl)SC1=NN(C)S(=O)N1S2(=O)=O (centres undefined) | – | > 100 | – | – | – | – | > 100 | > 100 | > 100 | > 100 | > 100 | > 100 | > 100 |
